Results on 5 molecules are retold here after ChEMBL document CHEMBL3217499, “Membrane disrupting antimicrobial peptide dendrimers with multiple amino termini” (Medchemcomm, 2012).

Structures are written as SMILES. ≈ marks a conversion by molar mass, not a printed value. Where a SMILES comes first, the peptide text is derived from it. Bridges are numbered along the chain shown (N, C = ends). Roman numbers before positions name the chains, in order. Side-chain parts run from the residue outwards. [ ]: non-standard residue; d: D form. The star is where a group is joined. LeuLys(Leu) = CC(C)C[C@H](N)C(=O)NCCCC[C@H](NC(=O)[C@@H](N)CC(C)C)C(=O)*; X2 = CC[C@H](C)[C@H](N)C(=O)NCCCC[C@H](NC(=O)[C@@H](N)[C@@H](C)CC)C(=O)*; X1 = CC(C)C[C@H](N)C(=O)NC[C@H](NC(=O)[C@@H](N)CC(C)C)C(=O)*; Dap = NC[C@H](N)C(=O)O

In data set [1] the test system is Pseudomonas aeruginosa. The data set is described as follows: Antibacterial activity against Pseudomonas aeruginosa PAO1 HS by broth microdilution assay. It is filed as functional. Background: Broth dilution looks for growth in wells or tubes with falling amounts of substance.
The next data set has as its system Bacillus subtilis. Nature of the data set: Antibacterial activity against Bacillus subtilis BR151 after 18 to 24 hrs by broth microdilution assay. It is filed as functional.
For data set [2], the system named is Pseudomonas aeruginosa. The data set is described as follows: Antibacterial activity against Pseudomonas aeruginosa 8S/H by broth microdilution assay. The data set is classed as functional.
In data set [3] the test system is Pseudomonas aeruginosa. The data set is described as follows: Antibacterial activity against Pseudomonas aeruginosa K799/WT by broth microdilution assay. It is filed as functional.
The test system of data set [4] is Pseudomonas aeruginosa. The data set is described as follows: Antibacterial activity against Pseudomonas aeruginosa PAO1 after 18 to 24 hrs by broth microdilution assay. It is filed as functional.
For data set [5], the system named is Enterococcus faecalis. The data set is described as follows: Antibacterial activity against Enterococcus faecalis Van BE80-8 by broth microdilution assay. It is filed as functional.
Data set [6] relates to Staphylococcus aureus. The data set is described as follows: Antibacterial activity against Staphylococcus aureus ATCC 29213 by broth microdilution assay. It is filed as functional.
The test system of data set [7] is Pseudomonas aeruginosa. Nature of the data set: Antibacterial activity against Pseudomonas aeruginosa ATCC 27853 by broth microdilution assay. It is filed as functional.
For data set [8], the system named is Escherichia coli. Nature of the data set: Antibacterial activity against Escherichia coli DH5[alpha] after 18 to 24 hrs by broth microdilution assay. The data set is classed as functional.
In data set [9] the test system is Staphylococcus aureus. The data set is described as follows: Antibacterial activity against methicillin-resistant Staphylococcus aureus 42080 by broth microdilution assay. The data set is classed as functional.
The subject of data set [10] is Pseudomonas aeruginosa. The data set is described as follows: Antibacterial activity against Pseudomonas aeruginosa K799/61 by broth microdilution assay. The data set is classed as functional.
Data set [11] can be described thus: Hemolytic activity in human RBC after 4 hrs. The data set is classed as ADME, cell-based. Particulars: erythrocyte.
In data set [12] the test system is Escherichia coli. Nature of the data set: Antibacterial activity against Escherichia coli ATCC 25922 by broth microdilution assay. The data set is classed as functional.
The test system of data set [13] is Enterococcus faecalis. Nature of the data set: Antibacterial activity against Enterococcus faecalis ATCC 29212 by broth microdilution assay. The data set is classed as functional.
Data set [14] deals with Escherichia coli. The data set is described as follows: Antibacterial activity against Escherichia coli HB101 (PAT 266) by broth microdilution assay. It is filed as functional.
Data set [15] has as its system Staphylococcus epidermidis. The data set is described as follows: Antibacterial activity against Staphylococcus epidermidis J147 by broth microdilution assay. It is filed as functional.
Data set [16] has as its system Enterococcus faecium. Nature of the data set: Antibacterial activity against Enterococcus faecium Van BE38-10 by broth microdilution assay. It is filed as functional.
Data set [17] deals with Staphylococcus aureus. Nature of the data set: Antibacterial activity against Staphylococcus aureus 887 by broth microdilution assay. It is filed as functional.
The test system of data set [18] is Enterococcus faecium. The data set is described as follows: Antibacterial activity against Enterococcus faecium ATCC 19434 by broth microdilution assay. It is filed as functional.
Data set [19] relates to Escherichia coli. The data set is described as follows: Antibacterial activity against Escherichia coli DC2 by broth microdilution assay. It is filed as functional.
For data set [20], the system named is Staphylococcus epidermidis. Nature of the data set: Antibacterial activity against Staphylococcus epidermidis ATCC 14990 by broth microdilution assay. The data set is classed as functional.
In data set [21] the test system is Staphylococcus aureus. The data set is described as follows: Antibacterial activity against Staphylococcus aureus ATCC 25923 by broth microdilution assay. The data set is classed as functional.

In the case of `CC(C)C[C@H](N)C(=O)NCCCC[C@H](NC(=O)[C@@H](N)CC(C)C)C(=O)N[C@@H](CCC(N)=O)C(=O)NCCCC[C@H](NC(=O)[C@H](CCC(N)=O)NC(=O)[C@H](CCCCNC(=O)[C@@H](N)CC(C)C)NC(=O)[C@@H](N)CC(C)C)C(=O)N[C@@H](Cc1ccccc1)C(=O)NCCCC[C@H](NC(=O)[C@H](Cc1ccccc1)NC(=O)[C@H](CCCCNC(=O)[C@H](CCC(N)=O)NC(=O)[C@H](CCCCNC(=O)[C@@H](N)CC(C)C)NC(=O)[C@@H](N)CC(C)C)NC(=O)[C@H](CCC(N)=O)NC(=O)[C@H](CCCCNC(=O)[C@@H](N)CC(C)C)NC(=O)[C@@H](N)CC(C)C)C(=O)N[C@@H](CCCCN)C(N)=O` (I: H-LK(Leu)QK([Gln-LeuLys(Leu)])FKK-NH2 / II: H-LK(Leu)QK([Gln-LeuLys(Leu)])F; amide I:6-II:C), the MIC against Pseudomonas aeruginosa [1] was above 32 µg/mL; against Bacillus subtilis, above 100 µg/mL; against Pseudomonas aeruginosa [2], above 32 µg/mL; against Pseudomonas aeruginosa [3], above 32 µg/mL; against Pseudomonas aeruginosa [4], above 100 µg/mL; with Enterococcus faecalis [5], above 32 µg/mL. The minimal inhibitory concentration (MIC) against Staphylococcus aureus [6] is above 32 µg/mL; in the data set on Pseudomonas aeruginosa [7], above 32 µg/mL; in the data set on Escherichia coli [8], above 100 µg/mL; against Staphylococcus aureus [9] it was above 32 µg/mL; in the data set on Pseudomonas aeruginosa [10], above 32 µg/mL; against Escherichia coli [12], above 32 µg/mL. In the data set on Enterococcus faecalis [13], this molecule had an MIC above 32 µg/mL. The molecule further yielded an MHC in data set [11] of 250 µg/mL.
For `CC[C@H](C)[C@H](N)C(=O)NCCCC[C@H](NC(=O)[C@@H](N)[C@@H](C)CC)C(=O)N[C@@H](Cc1ccccc1)C(=O)NCCCC[C@H](NC(=O)[C@H](Cc1ccccc1)NC(=O)[C@H](CCCCNC(=O)[C@@H](N)[C@@H](C)CC)NC(=O)[C@@H](N)[C@@H](C)CC)C(=O)N1CCC[C@H]1C(=O)NCCCC[C@H](NC(=O)[C@@H]1CCCN1C(=O)[C@H](CCCCNC(=O)[C@H](Cc1ccccc1)NC(=O)[C@H](CCCCNC(=O)[C@@H](N)[C@@H](C)CC)NC(=O)[C@@H](N)[C@@H](C)CC)NC(=O)[C@H](Cc1ccccc1)NC(=O)[C@H](CCCCNC(=O)[C@@H](N)[C@@H](C)CC)NC(=O)[C@@H](N)[C@@H](C)CC)C(=O)N[C@@H](CCCCN)C(N)=O` (I: H-IK(Ile)FK([Phe-X2])PKK-NH2 / II: H-IK(Ile)FK([Phe-X2])P; amide I:6-II:C), the MIC in the data set on Pseudomonas aeruginosa [1] is above 32 µg/mL; against Bacillus subtilis, 2.5 µg/mL (≈ 0.916 µM); with Pseudomonas aeruginosa [2] it was above 32 µg/mL; in the data set with Pseudomonas aeruginosa [3], above 32 µg/mL; against Pseudomonas aeruginosa [4], 61 µg/mL (≈ 22.3 µM); with Enterococcus faecalis [5], above 32 µg/mL. For the same molecule, the MIC against Staphylococcus aureus [6] is above 32 µg/mL; against Pseudomonas aeruginosa [7], above 32 µg/mL; in the data set with Escherichia coli [8] it was 18 µg/mL (≈ 6.59 µM); in the data set on Staphylococcus aureus [9], above 32 µg/mL; in the data set with Pseudomonas aeruginosa [10], above 32 µg/mL; against Escherichia coli [12] it was above 32 µg/mL. The minimum inhibitory concentration (MIC) against Enterococcus faecalis [13] was above 32 µg/mL. The same molecule had an MHC in [11] above 10000 µg/mL.
Regarding `CC[C@H](C)[C@H](N)C(=O)NCCCC[C@H](NC(=O)[C@@H](N)[C@@H](C)CC)C(=O)N[C@H](C(=O)NCCCC[C@H](NC(=O)[C@@H](NC(=O)[C@H](CCCCNC(=O)[C@@H](N)[C@@H](C)CC)NC(=O)[C@@H](N)[C@@H](C)CC)[C@@H](C)CC)C(=O)N[C@@H](Cc1ccccc1)C(=O)NCCCC[C@H](NC(=O)[C@H](Cc1ccccc1)NC(=O)[C@H](CCCCNC(=O)[C@@H](NC(=O)[C@H](CCCCNC(=O)[C@@H](N)[C@@H](C)CC)NC(=O)[C@@H](N)[C@@H](C)CC)[C@@H](C)CC)NC(=O)[C@@H](NC(=O)[C@H](CCCCNC(=O)[C@@H](N)[C@@H](C)CC)NC(=O)[C@@H](N)[C@@H](C)CC)[C@@H](C)CC)C(=O)N[C@@H](CCCCN)C(N)=O)[C@@H](C)CC` (I: H-IK(Ile)IK([Ile-X2])FKK-NH2 / II: H-IK(Ile)IK([Ile-X2])F; amide I:6-II:C), the MIC against Pseudomonas aeruginosa [1] is above 32 µg/mL; against Bacillus subtilis it was 4.4 µg/mL (≈ 1.63 µM); with Escherichia coli [14], above 32 µg/mL; in data set [15], above 32 µg/mL; against Enterococcus faecium [16], 8 µg/mL (≈ 2.97 µM); in the data set on Staphylococcus aureus [17], 16 µg/mL (≈ 5.94 µM). For the same molecule, the MIC with Enterococcus faecium [18] is 24 µg/mL (≈ 8.91 µM); with Pseudomonas aeruginosa [2] it was above 32 µg/mL; against Pseudomonas aeruginosa [3] it was above 32 µg/mL; in the data set on Pseudomonas aeruginosa [4], above 100 µg/mL; with Escherichia coli [19] it was above 32 µg/mL; against Enterococcus faecalis [5] it was above 32 µg/mL. The minimum inhibitory concentration (MIC) was above 32 µg/mL with Staphylococcus aureus [6]; above 32 µg/mL against Pseudomonas aeruginosa [7]; 79 µg/mL (≈ 29.3 µM) in the data set with Escherichia coli [8]; above 32 µg/mL against Staphylococcus aureus [9]; 32 µg/mL (≈ 11.9 µM) in data set [20]; above 32 µg/mL in the data set with Pseudomonas aeruginosa [10]. Besides, the MIC in the data set on Escherichia coli [12], against Staphylococcus aureus [21] and with Enterococcus faecalis [13] was above 32 µg/mL in each case. Besides, in data set [11], the MHC worked out at 20 µg/mL.
Consider `CC1(C)S[C@@H]2[C@H](NC(=O)[C@H](N)c3ccccc3)C(=O)N2[C@H]1C(=O)O` [AMPICILLIN], for which the minimal inhibitory concentration (MIC) in the data set with Escherichia coli [14] is above 32 µg/mL; in data set [15], 1.5 µg/mL (≈ 4.29 µM); with Enterococcus faecium [16] it was above 32 µg/mL; in the data set on Staphylococcus aureus [17] it was above 32 µg/mL; in the data set with Enterococcus faecium [18], 4 µg/mL (≈ 11.4 µM); with Escherichia coli [19], 1 µg/mL (≈ 2.86 µM). The minimal inhibitory concentration (MIC) in data set [20] was found to be 1 µg/mL (≈ 2.86 µM); with Staphylococcus aureus [21], 0.13 µg/mL (≈ 0.372 µM).
For the molecule `CC(C)C[C@H](N)C(=O)NC[C@H](NC(=O)[C@@H](N)CC(C)C)C(=O)N[C@@H](Cc1ccccc1)C(=O)NC[C@H](NC(=O)[C@H](Cc1ccccc1)NC(=O)[C@H](CNC(=O)[C@@H](N)CC(C)C)NC(=O)[C@@H](N)CC(C)C)C(=O)N1CCC[C@H]1C(=O)NC[C@H](NC(=O)[C@@H]1CCCN1C(=O)[C@H](CNC(=O)[C@H](Cc1ccccc1)NC(=O)[C@H](CNC(=O)[C@@H](N)CC(C)C)NC(=O)[C@@H](N)CC(C)C)NC(=O)[C@H](Cc1ccccc1)NC(=O)[C@H](CNC(=O)[C@@H](N)CC(C)C)NC(=O)[C@@H](N)CC(C)C)C(=O)N[C@@H](CCCCN)C(N)=O` (I: H-L[Dap](Leu)F[Dap]([Phe-X1])P[Dap]K-NH2 / II: H-L[Dap](Leu)F[Dap]([Phe-X1])P; amide I:6-II:C), the minimum inhibitory concentration (MIC) against Pseudomonas aeruginosa [1] was above 32 µg/mL; against Bacillus subtilis, 3.1 µg/mL (≈ 1.27 µM); in the data set with Pseudomonas aeruginosa [2] it was above 32 µg/mL; in the data set on Pseudomonas aeruginosa [3], above 32 µg/mL; against Pseudomonas aeruginosa [4], 20 µg/mL (≈ 8.21 µM); in the data set on Enterococcus faecalis [5], above 32 µg/mL. In addition, the MIC was above 32 µg/mL with Staphylococcus aureus [6]; above 32 µg/mL in the data set with Pseudomonas aeruginosa [7]; 15 µg/mL (≈ 6.16 µM) against Escherichia coli [8]; above 32 µg/mL against Staphylococcus aureus [9]; above 32 µg/mL against Pseudomonas aeruginosa [10]; above 32 µg/mL against Escherichia coli [12]. The molecule further had an MIC against Enterococcus faecalis [13] above 32 µg/mL. Further, the MHC in data set [11] is above 2000 µg/mL.

The term MIC denotes the lowest concentration that inhibits growth of the organism. Low readings indicate a more susceptible organism, high ones a less susceptible organism.
